The structures appear in SMILES notation.

The test system of this assay is C fibers. The assay is described as follows: Current threshold for C fiber stimulation (anode stimulation) after application of capsaicin in vaseline to subjects. The assay is classed as in vivo. The conditions noted are these: for current threshold: anode stimulation of C fibers. From the text: Even when any one of the above-described configurations of the stimulation electrode 30 is used, at least one of an exogenous algesic substance 60 and a pyrogen 60 is interposed between the stimulation electrode 30 and the contact portion of the living body A, by means of, for example, application (FIG. 1). Examples of the exogenous algesic substance 60 are capsaicin, sanshool, zingerone, camphor, allyl isothiocyanate, and menthol. The exogenous algesic substance is a concept which contains an algesic substance, a phlogogenic substance, and an irritating substance. In the case where the exogenous algesic substance 60 is interposed by means of application, it is preferably applied about 20 minutes before stimulation of the living body. Preferably, the pyrogen 60 warms the stimulation portion of the living body A to about 30° C. by, for example, using heat generation due to an oxidation reaction of a metal. The operating section 24 includes a polarity conversion setting unit. The polarity conversion setting unit can give instructions for causing the polarity switching section 25 which is the electrical polarity converting unit, to convert the electrical polarity. According to the configuration, the electrical polarity of the needle electrode 31 can be set as the anode, and that of the contact electrode 32 can be set as the cathode, or, by contrast, the electrical polarity of the needle electrode 31 can be set as the cathode, and that of the contact electrode 32 can be set as the anode. […] In the case where the polarity switching section 25 sets the electrical polarity of the needle electrode 31 as the cathode, moreover, Aδ fibers can be selectively stimulated. Table 1 indicates results of measurements in which an appropriate amount (a weight ratio of about 0.05 to 0.1 with respect to vaseline) of capsaicin was applied as the exogenous algesic substance to four subjects. Table 1 indicates relationships between the current threshold in the case where the anode stimulation was performed on each subject and C fibers of each subject was stimulated, and the time period elapsed after the application. […] Since an effect due to stimulation was obtained even at a low stimulation intensity (mA), this minimizes the burden on a subject, and realizes the check of the nerve function. It was also confirmed that an effective examination can be conducted without being affected by the skill of the measuring person.

For `COc1cc(CNC(=O)CCCC/C=C/C(C)C)ccc1O` [capsaicin], the current threshold (Subject 1, 5 minutes after application, capsaicin weight ratio about 0.05 to 0.1 with respect to vaseline) was 0.10 (mA); the current threshold (Subject 1, 10 minutes after application) is 0.10 (mA); the current threshold (Subject 1, 15 minutes after application) is recorded as 0.09 (mA); the current threshold (Subject 1, 20 minutes after application) is listed as 0.09 (mA); the current threshold (Subject 2, 5 minutes after application) is reported as 0.32 (mA); the current threshold (Subject 2, 10 minutes after application) was 0.18 (mA). The current threshold runs as follows: (Subject 2, 15 minutes after application) 0.13 (mA); (Subject 2, 20 minutes after application) 0.15 (mA); (Subject 3, 5 minutes after application) 0.14 (mA); (Subject 3, 10 minutes after application) 0.13 (mA); (Subject 3, 20 minutes after application) 0.09 (mA); (Subject 4, 5 minutes after application) 0.05 (mA). The current threshold reads like this: (Subject 4, 10 minutes after application) 0.04 (mA); (Subject 4, 15 minutes after application) 0.04 (mA); (Subject 4, 20 minutes after application) 0.04 (mA). The “current threshold reduced to fraction of the normal value” reads like this: (Subject 2, during 20 minutes after the application) “about one half”; (Subject 3, during 20 minutes after the application) “about two thirds”. Further, the “trend of the current threshold” value (four subjects, during 20 minutes after the application) is “downward trend”.
